What was measured:
nitric oxide synthase = assay: Nitrite and nitrate release from isolated hearts; parameters: species or system rabbit; conditions: before 2.3±0.9
Description: Nitrite and nitrate release from hearts before (2.3±0.9 nmoles/min/g) and after (2.4±1.9 nmoles/min/g) 15 minutes treatment with erythropoietin (1.0 U/ml, n=8) were not different.

[1] = system: adult male Sprague Dawley rat hearts; assay: Coronary artery ligation model, isolated perfused heart, 30 min regional ischemia and 3 hours reperfusion; conditions: erythropoietin 1.0 U/ml 15 minutes prior to regional ischemia, vs control
Excerpt: Animals used in this study were adult male Sprague Dawley rats (200-350 g, generally 300 g). Animals were housed under standard conditions and allowed to feed ad lib. The Animal Care and Use Committee of the Medical College of Wisconsin approved all procedures performed in accordance with the regulations adopted by the National Institutes of Health.
A myocardial infarction was produced via the ligation of the left main artery using 6-0 prolene suture (See, e.g., Clements-Jewery et al., Br J Pharmacol. 135:807-815, 2002; Farkas et al., J Cardiovasc Pharmacol. 39,412-424, 2002). Rats were anesthetized with sodium pentobarbital (50 mg/kg i.p.). Heparin was then administered (150 U/kg i.p.) to prevent the formation of a thrombus in the coronary vasculature. The heart was then excised and perfused retrogradely with bicarbonate buffer at a pressure of 80 mmHg. (See e.g., Baker et al., Am J Physiol 278, H1395-H1400, 2000). The perfusate was not recirculated. […]
The heart was sectioned in 2 mm segments from apex to atrio-ventricular groove in a transverse fashion. Each segment was recorded and placed in formalin. […] The percentage of infarction of each slide was expressed as a percentage of the entire area of the heart.

[2] = system: hearts from chronically hypoxic infant rabbits; parameters: species or system New Zealand White rabbit
Excerpt: Animals. Rabbits used in the study received humane care in compliance with the “Guide for the Care and Use of Laboratory Animals” formulated by the National Research Council, 1996. Infant New Zealand White rabbits were maintained for 10 days in a normoxic (SaO2>95%) or hypoxic (SaO2<85%) environment as described in Baker et al., Circulation 99:1249-54 (1999).
Isolated heart perfusion. Isolated rabbit hearts were perfused with bicarbonate buffer at constant pressure in a retrograde manner and instrumented as described in Baker et al., Circulation 99:1249-54 (1999). Protein kinase inhibitors, potassium channel blockers or nitric oxide synthase inhibitors were added to this perfusate as needed. A 3-way tap, located immediately above the site of cannulation, allowed the entire perfusate to be diverted away from the heart to produce global, no-flow ischemia. Reperfusion was achieved by repositioning of the tap to allow perfusate to be delivered to the heart. Left and right ventricular function was monitored continuously throughout each experiment as described in Baker et al., Circulation 99:1249-54 (1999). End-diastolic pressure was initially set to 3 mmHg for 2 minutes. The balloons were then progressively inflated with a microsyringe to set end-diastolic pressures to 8 mmHg for the left ventricle and 4 mmHg for the right ventricle, with developed pressure and heart rate recorded during steady-state conditions. Coronary flow rate was measured throughout the experiment by timed collections of the coronary effluent from the right side of the heart into a graduated cylinder. Coronary flow rate was expressed as milliliters per minute per gram wet weight.
Resistance to myocardial ischemia. Hearts from infant rabbits were perfused with bicarbonate buffer, and biventricular function was monitored continuously throughout each experiment as described in Rafiee et al., Circulation 106:239-45 (2002). For concentration response studies, hearts were then perfused with erythropoietin (0.5-10.0 U/ml) for 15 minutes prior to 30 minutes ischemia and 35 minutes reperfusion. For mechanism studies with protein kinase inhibitors, potassium channel blockers or nitric oxide synthase inhibitors, hearts were perfused with drugs for 15 minutes alone followed by 15 minutes in combination with erythropoietin prior to ischemia. Hearts perfused with protein kinase inhibitors or potassium channel blockers alone in the absence of erythropoietin for 30 minutes prior to ischemia served as untreated controls for these studies. Recovery of post-ischemic left and right ventricular developed pressure was expressed as a percentage of its pre-drug, pre-ischemic value.
Hearts from 10 day old chronically hypoxic rabbits were treated with erythropoietin at a concentration of 1.0 U/ml.

[3] = chronically hypoxic hearts, EPO 1.0 U/ml for 15 min
[4] = chronically hypoxic hearts, EPO 1.0 U/ml, after 30 min ischemia

With “erythropoietin: Recombinant human erythropoietin, a glycoprotein hormone, obtained from Cell Science, Inc.” the “nitrite and nitrate release from hearts after treatment” value (nitric oxide synthase; after 15-minute erythropoietin 1.0 U/ml, not different (discussion)) was 2.4 ± 0.9 nmol/min/g, the “nitrite and nitrate release from hearts after treatment” value (nitric oxide synthase; after 15 minutes erythropoietin 1.0 U/ml, not different) was 2.4 ± 1.9 nmol/min/g and the myocardial infarct size [1] was “decrease in myocardial infarct size”. The “adverse effect on ischemic myocardium” value [2] was “did not appear to exert any adverse effect”, the “POST DRUG Coronary flow rate” value [2, 3] was 5 ± 1 mL/min/g and the “POST DRUG Heart rate” value [2, 3] was 181 ± 16 beats/min. For the same substance, the “POST DRUG Left ventricle developed pressure” value [2, 3] was 117 ± 15 mmHg, the “POST DRUG Right ventricle developed pressure” value [2, 3] was 46 ± 8 mmHg and the “REPERFUSION (35 min) Coronary flow rate” value [2, 4] was 6 ± 2 mL/min/g. The “REPERFUSION (35 min) Heart rate” value [2, 4] was 204 ± 25 beats/min, the “REPERFUSION (35 min) Left ventricle developed pressure” value [2, 4] was 77 ± 7 mmHg and the “REPERFUSION (35 min) Right ventricle developed pressure” value [2, 4] was 42 ± 6 mmHg.
